We go through 20 molecules from patent US6821980B1, “Substituted 5-benzyl-2,4-diaminopyrimidines” (Basilea Pharmaceutica AG, priority 1999, dated 2004).

Converted amounts (≈) assume the structure as drawn. Where two headings read alike, the source gives them in different places.

For experiment [1], the target named is T1, purified DHFR of strain Sp1/1 of Streptococcus pneumoniae (Streptococcus pneumoniae serotype 4, UniProt Q54801).
T1 sequence (Q54801 1-168 I100L): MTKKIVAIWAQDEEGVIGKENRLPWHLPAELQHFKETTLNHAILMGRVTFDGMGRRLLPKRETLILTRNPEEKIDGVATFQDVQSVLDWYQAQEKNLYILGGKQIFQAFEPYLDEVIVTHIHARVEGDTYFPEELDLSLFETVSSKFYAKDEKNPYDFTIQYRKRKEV
Format: biochemical. The note with it: IC50 against purified DHFR of strain Sp1/1.

In experiment [2] the target is purified DHFR of strain 157/4696 of Staphylococcus aureus (Staphylococcus aureus, UniProt P13955). As to the kind of experiment: biochemical.
The test system of experiment [3] is Staphylococcus aureus 101. The experiment is described as follows: MIC against Staphylococcus aureus 101. Format: cell-based. To be noted: Staphylococcus aureus 101, MRSA- and trimethoprim-resistant, clinical isolate; for MIC: read-out: MIC Sa101.
Experiment [4] concerns Streptococcus pneumoniae 1/1. The experiment is described as follows: MIC against Streptococcus pneumoniae 1/1. Format: cell-based. To be noted: Streptococcus pneumoniae 1/1, trimethoprim- and penicillin-resistant, serotype 6, clinical isolate; for MIC: read-out: MIC Sp1/1.
[5] abbreviates: Table 2, IC50 against purified DHFR of strain 157/4696 (highly trimethoprim-resistant; clinical isolate), read-out: DHFR Sa1.

purified DHFR of strain 157/4696 of Staphylococcus aureus, sequence (P13955 whole entry): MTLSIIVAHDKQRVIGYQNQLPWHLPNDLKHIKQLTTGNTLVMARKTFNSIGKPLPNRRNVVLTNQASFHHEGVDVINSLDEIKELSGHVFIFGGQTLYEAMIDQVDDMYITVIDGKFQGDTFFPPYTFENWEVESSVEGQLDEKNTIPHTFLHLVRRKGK

With `CCOc1cc(Cc2cnc(N)nc2N)cc(OS(=O)(=O)C(C)C)c1-c1ccc(OC)c(N)c1` [Example 33-a, Propane-2-sulphonic acid 3′-amino-4-(2,4-diamino-pyrimidin-5-ylmethyl)-6-ethoxy-4′-methoxy-4-ylmethyl-biphenyl-2-yl ester], the IC50 in experiment [1] (Table 2) was 12 nM; in experiment [2], 65 nM. Also, the MIC in experiment [3] (Table 2) and in experiment [4] (Table 2) was 1 µg/mL (≈ 2.05 µM) in each case.
As for `CCOc1cc(Cc2cnc(N)nc2N)cc(OS(=O)(=O)C(C)C)c1-c1ccc(N)c(F)c1` [Example 33-b, Propane-2-sulphonic acid 4′-amino-4-(2,4-diamino-pyrimidin-5-ylmethyl)-6-ethoxy-3′-fluoro-4-ylmethyl-biphenyl-2-yl ester], the IC50 in experiment [1] (Table 2) is 14 nM; in experiment [2], 260 nM. Besides, the MIC turned out to be 2 µg/mL (≈ 4.21 µM) in experiment [3] (Table 2) and 1 µg/mL (≈ 2.1 µM) in experiment [4] (Table 2).
Regarding `CCOc1cc(Cc2cnc(N)nc2N)cc(OS(=O)(=O)C(C)C)c1-c1cc(N)cc(F)c1` [Example 33-c, Propane-2-sulphonic acid 3′-amino-4-(2,4-diamino-pyrimidin-5-ylmethyl)-6-ethoxy-5′-fluoro-4-ylmethyl-biphenyl-2-yl ester], the figures for the IC50 in experiment [1] (Table 2) and in experiment [2] (setting [5]) were 14 nM and 100 nM, respectively. Further, the “MIC Sa101” value in experiment [3] (Table 2) is 2 µg/mL (≈ 4.21 µM). The “MIC Sp1/1” value in experiment [4] (Table 2) was found to be 2 µg/mL (≈ 4.21 µM).
As for `CCOc1cc(Cc2cnc(N)nc2N)cc(OS(=O)(=O)C(C)C)c1-c1ccc(CN2CCOCC2)c(N)c1` [Example 33-d, Propane-2-sulphonic acid 3′-amino-4-(2,4-diamino-pyrimidin-5-ylmethyl)-6-ethoxy-4′-morpholinemethyl-4-ylmethyl-biphenyl-2-yl ester], the figures for the IC50 in experiment [1] (Table 2) and in experiment [2] (setting [5]) were 9.1 nM and 39 nM, respectively. The “MIC Sa101” value in experiment [3] (Table 2) stood at 2 µg/mL (≈ 3.59 µM). For the same molecule, in experiment [4] (Table 2), the “MIC Sp1/1” value was determined as 2 µg/mL (≈ 3.59 µM).
Take `CCOc1cc(Cc2cnc(N)nc2N)cc(OS(=O)(=O)C(C)C)c1-c1ccc(CN(C)C)c(N)c1` [Example 33-f, Propane-2-sulphonic acid 3′-amino-4-(2,4-diamino-pyrimidin-5-ylmethyl)-6-ethoxy-4′-dimethylaminomethyl-biphenyl-2-yl ester]: the results for the IC50 in experiment [1] (Table 2) and in experiment [2] were 89 nM and 42 nM, respectively. Moreover, the MIC in experiment [3] (Table 2) worked out at 2 µg/mL (≈ 3.89 µM); in experiment [4] (Table 2) it was 8 µg/mL (≈ 15.5 µM).
As for `CCOc1cc(Cc2cnc(N)nc2N)cc(OS(=O)(=O)C(C)C)c1-c1ccc(C)nc1` [Example 33-g, Propane-2-sulphonic acid 5-(2,4-diamino-pyrimidin-5-ylmethyl)-3-ethoxy-2-(6-methyl-pyridin-3-yl)-phenyl ester], the figures for the IC50 in experiment [1] (Table 2) and in experiment [2] were 76 nM and 980 nM, respectively. Also, the figures for the MIC in experiment [3] (Table 2) and in experiment [4] (Table 2) were 4 µg/mL (≈ 8.74 µM) and 8 µg/mL (≈ 17.5 µM), respectively.
On to `CCOc1cc(Cc2cnc(N)nc2N)cc(OS(=O)(=O)C(C)C)c1-c1ccc(N)c(C)c1` [Example 33e, Propane-2-sulphonic acid 4′-amino-4-(2,4-diamino-pyrimidin-5-ylmethyl)-6-ethoxy-3′-methyl-biphenyl-2-yl ester], for which the IC50 was 19 nM in experiment [1] (Table 1) and 200 nM in experiment [2]. Further, the MIC in experiment [3] (Table 1) and in experiment [4] (Table 1) was 1 µg/mL (≈ 2.12 µM) in each case.
For `CCOc1cc(Cc2cnc(N)nc2N)cc(OS(=O)(=O)C2CC2)c1-c1cccc(N)c1` [Example 34-a, Cyclopropanesulphonic acid 3′-amino-4-(2,4-diamino-pyrimidin-5-ylmethyl)-6-ethoxy-bilphenyl-2-yl ester], the IC50 in experiment [1] (Table 2) was 9.2 nM; in experiment [2] it was 270 nM. Besides, the MIC in experiment [3] (Table 2) amounted to 2 µg/mL (≈ 4.39 µM); in experiment [4] (Table 2), 1 µg/mL (≈ 2.2 µM).
In the same order, the values of `CCOc1cc(Cc2cnc(N)nc2N)cc(OS(=O)(=O)C2CC2)c1-c1ccc(NC)cc1` [Example 34-b, Cyclopropanesulphonic acid 4-(2,4-diamino-Ryrimidin-5-ylmethyl)-6-ethoxy-4′-methylamino-biphenyl-2-yl ester] are 11 nM, 210 nM, 2 µg/mL (≈ 4.26 µM) and 1 µg/mL (≈ 2.13 µM).
In the same order, the values of `CCOc1cc(Cc2cnc(N)nc2N)cc(OS(=O)(=O)C2CC2)c1-c1cc(N)cc(F)c1` [Example 34-c, Cyclopropanesulphonic acid 3′-amino-4-(2,4-diamino-pyrimidin-5-ylmethyl)-6-ethoxy-5′-fluoro-biphenyl-2-yl ester] are 3.4 nM, 190 nM, 4 µg/mL (≈ 8.45 µM) and 2 µg/mL (≈ 4.22 µM).
For the molecule `CCOc1cc(Cc2cnc(N)nc2N)cc(OS(=O)(=O)C2CC2)c1-c1ccc(N)c(C)c1` [Example 34-d, Cyclopropanesulphonic acid 4′-amino-4-(2,4-diamino-pyrimidin-5-ylmethyl)-6-ethoxy-3′-methyl-biphenyl-2-yl ester], the figures for the IC50 in experiment [1] (Table 2) and in experiment [2] were 2.4 nM and 140 nM, respectively. The MIC in experiment [3] (Table 2) was determined as 2 µg/mL (≈ 4.26 µM); in experiment [4] (Table 2), 1 µg/mL (≈ 2.13 µM).
For `CCOc1cc(Cc2cnc(N)nc2N)cc(OS(=O)(=O)C2CC2)c1-c1ccc(CN2CCOCC2)c(N)c1` [Example 34-e, Cyclopropanesulphonic acid 3′-amino-4-(2,4-diamino-pyrimidin-5-ylmethyl)-6-ethoxy-4′-morpholin-4-ylmethyl-biphenyl-2-yl ester], the IC50 in experiment [1] (Table 2) worked out at 15 nM; in experiment [2], 140 nM. The MIC in experiment [3] (Table 2) and in experiment [4] (Table 2) was 4 µg/mL (≈ 7.21 µM) each time.
Take `CCOc1cc(Cc2cnc(N)nc2N)cc(OS(=O)(=O)C2CC2)c1-c1ccc(C)c(N)c1` [Example 34-f, Cyclopropanesulphonic acid 3′-amino-4-(2,4-diamino-pyrimidin-5-ylmethyl)-6-ethoxy-4′-methyl-biphenyl-2-yl ester]: the IC50 came to 9.5 nM in experiment [1] (Table 2) and 97 nM in experiment [2]. In addition, the results for the MIC in experiment [3] (Table 2) and in experiment [4] (Table 2) were 2 µg/mL (≈ 4.26 µM) and 1 µg/mL (≈ 2.13 µM), respectively.
On to `CCOc1cc(Cc2cnc(N)nc2N)cc(OS(=O)(=O)C(C)CC)c1-c1ccc(N)c(F)c1` (centres unmarked) [Example 35-b, Butane-2-sulphonic acid 4′-amino-4-(2,4-diamino-pyrimidin-5-ylmethyl)-6-ethoxy-3′-fluoro-biphenyl-2-yl ester], for which the IC50 in experiment [1] (Table 2) amounted to 9 nM; in experiment [2], 130 nM. Further, the MIC in experiment [3] (Table 2) was 2 µg/mL (≈ 4.09 µM); in experiment [4] (Table 2), 0.5 µg/mL (≈ 1.02 µM).
In the same order, the values of `CCOc1cc(Cc2cnc(N)nc2N)cc(OS(=O)(=O)C(C)CC)c1-c1ccc(CN2CCOCC2)c(N)c1` (centres unmarked) [Example 35-c, Butane-2-sulphonic acid 3′-amino-4-(2,4-diamino-pyrimidin-5-ylmethyl)-6-ethoxy-4′-morpholin-4-ylmethyl-biphenyl-2-yl ester] are 4.6 nM, 43 nM, 2 µg/mL (≈ 3.5 µM) and 1 µg/mL (≈ 1.75 µM).
In the same order, the values of `CCOc1cc(Cc2cnc(N)nc2N)cc(OS(=O)(=O)C(C)CC)c1-c1ccc(OC)c(N)c1` (centres unmarked) [Example 35-d, Butane-2-sulphonic acid 3′-amino-4-(2,4-diamino-gyrimidin-5-ylmethyl)-6-ethoxy-4′-methoxy-biphenyl-2-yl ester] are 4.3 nM, 95 nM, 2 µg/mL (≈ 3.99 µM) and 1 µg/mL (≈ 1.99 µM).
`CCOc1cc(Cc2cnc(N)nc2N)cc(OS(=O)(=O)C(C)CC)c1-c1ccc(NCCO)cc1` (centres unmarked) [Example 35-f, Butane-2-sulphonic acid 4-(2,4-diamino-pyrimidin-5-ylmethyl)-6-ethoxy-4′-(2-hydroxy-ethylamino)-biphenyl-2-yl ester]: the IC50 in experiment [1] (Table 2) amounted to 8.5 nM; in experiment [2], 120 nM. For the same molecule, the MIC in experiment [3] (Table 2) is 4 µg/mL (≈ 7.76 µM); in experiment [4] (Table 2) it was 0.5 µg/mL (≈ 0.97 µM).
Consider `CCOc1cc(Cc2cnc(N)nc2N)cc(OS(=O)(=O)C(C)CC)c1-c1ccc(N)cc1` (centres unmarked) [Example 35a, Butane-2-sulphonic acid 4′-amino-4-(2,4-diamino-pyrimidin-5-ylmethyl)-6ethoxy-biphenyl-2-yl ester], for which the IC50 in experiment [1] (Table 1) amounted to 3.7 nM; in experiment [2] it was 110 nM. The figures for the MIC in experiment [3] (Table 1) and in experiment [4] (Table 1) were 2 µg/mL (≈ 4.24 µM) and 0.5 µg/mL (≈ 1.06 µM), respectively.
Turning to `CCOc1cc(Cc2cnc(N)nc2N)cc(OS(=O)(=O)C(C)CC)c1-c1ccc(N)c(C)c1` (centres unmarked) [Example 35e, Butane-2-sulphonic acid 4′-amino-4-(2,4-diamino-pyrimidin-5-ylmethyl)-6-ethoxy-3′-methyl-biphenyl-2-yl ester], the IC50 was 4.6 nM in experiment [1] (Table 1) and 62 nM in experiment [2]. The MIC came to 1 µg/mL (≈ 2.06 µM) in experiment [3] (Table 1) and 0.5 µg/mL (≈ 1.03 µM) in experiment [4] (Table 1).
As to `CCOc1cc(Cc2cnc(N)nc2N)cc(OS(=O)(=O)CC(C)C)c1-c1ccc(N)c(C)c1` [Example 36-a, 2-Methyl-propane-1-sulphonic acid 4′-amino-4-(2,4-diamino-pyrimidin-5-ylmethyl)-6-ethoxy-3′-methyl-biphenyl-2-yl ester], the values for the IC50 in experiment [1] (Table 2) and in experiment [2] were 3.3 nM and 32 nM, respectively. In addition, the MIC in experiment [3] (Table 2) was found to be 2 µg/mL (≈ 4.12 µM); in experiment [4] (Table 2), 0.25 µg/mL (≈ 0.515 µM).
